# In patent US4816447A, “Anti-viral guanine compounds” (priority 1984, dated 1989):
# Experiments:
# Epstein-Barr virus (EBV) = experiment: Human cord blood lymphocyte transformation assay; type: cell-based, Epstein-Barr (B95-8); human cord blood lymphocytes; conditions: human gammaherpesvirus 4, B-95-8; B95-8, lymphocyte transformation; read-out: Minimum Effective Concentration
# Source text: ^c Human cord blood lymphocyte transformation assay.
# [1] = system: Herpes simplex virus type I (HSV-1), strain Schooler; experiment: Treatment of Herpes simplex virus infection in mice, repeat experiment (Table III); type: in vivo, HSV-1; ICR/Ha mice; conditions: for Percent Survival: at 15 days
# Procedure: Twenty gram ICR/Ha mice were injected intraperitoneally (ip) with 0.5 ml of a 10^-5 dilution of a stock preparation of Herpes simplex virus type I (HSV-1), strain Schooler. This virus challenge infected each animal with approximately 100 LD50. […] The placebo group was composed of 45 animals. All compounds were solubilized in physiological saline, pH 11.5.
# HSV-1 [2] = experiment: Intraperitoneal HSV-1 infection in mice, oral treatment (Table VI); type: in vivo, HSV-1; ICR/Ha mice; conditions: Human alphaherpesvirus 1; intraperitoneal infection, oral treatment; read-out: Min. Effective Dose
# HSV-1 [3] = experiment: Corneal HSV-1 infection of rabbit eyes, topical treatment (Table VI); type: in vivo, HSV-1; rabbits
# [4] = system: Herpes simplex virus type 1 (Strain S); experiment: Orofacial Herpes simplex virus type 1 infection in mice, oral treatment (Table XIII); type: in vivo, Herpes simplex virus type 1; HRS (hairless) mice; conditions: for Lesion Incidence (%) / Lesion Incidence (number/Total) / Lesion Severity (scale 0 to 4): 7 days
# Procedure: Twenty grams HRS (hairless) mice were infected on the abraded orofacial area with Herpes simplex virus type 1 (Strain S). […] At 7 days after initiation of infection, the extent of lesion development in the orofacial area was measured on a scale of 0 (no lesions) to 4 (massive lesions over the entire snout).
# [5] = system: Herpes simplex virus type 1 (Strain S); experiment: Orofacial Herpes simplex virus type 1 infection in mice, therapeutic oral treatment (Table XIV); type: in vivo, Herpes simplex virus type 1; HRS (hairless) mice; conditions: for Lesion Incidence (%) / Lesion Incidence (number/Total) / Lesion Severity (scale 0 to 4): 12.5 mg/kg/day oral
# Procedure: Twenty gram HRS (hairless) mice were infected on the abraded orofacial area with Herpes simplex virus type 1 (Strain S).
# a. Groups of 10 infected animals were treated twice daily by oral gavage for up to 7 days with the compound of formula II at 12.5 mg/kg/day, starting 3, 8, 12, 24, 48, 72, or 96 hours after infection. […]
# At 7 days after initiation of infection, the extent of lesion development in the orofacial area was measured on a scale of 0 (no lesions) to 4 (massive lesions over the entire snout).
# [6] = system: Herpes simplex virus type 1; experiment: Tube dilution assay, viral cytopathology of HSV-1 in rabbit kidney cell cultures; conditions: Human alphaherpesvirus 1, in Oryctolagus cuniculus, read-out: Minimum Effective Concentration, Strain Schooler
# [7] = system: Herpes simplex virus type 2; experiment: Tube dilution assay, viral cytopathology of HSV-2 in rabbit kidney cell cultures; conditions: Human alphaherpesvirus 2, in Oryctolagus cuniculus, read-out: Minimum Effective Concentration
compound,measurement,setting,value
"Nc1nc2c(ncn2COCCO)c(=O)[nH]1 [Acycloguanosine, 9-(2-hydroxyethoxymethyl)guanine, reference compound]",minimal effective concentration,Epstein-Barr virus (EBV),10 to 100 µg/mL
same,Avg. Survival Time,[1]; 12.5 mg/kg/day s.c.,7.0 days
same,Percent Survival,[1]; 12.5 mg/kg/day s.c.,6%
same,Avg. Survival Time,[1]; 50 mg/kg/day s.c.,7.8 days
same,Percent Survival,[1]; 50 mg/kg/day s.c.,0%
same,Avg. Survival Time,[1]; 100 mg/kg/day s.c.,7.8 days
same,Percent Survival,[1]; 100 mg/kg/day s.c.,10%
same,minimal effective dose,HSV-1 [2],12.5 to 50 mg/kg/day
same,Min. Effective Dose,"HSV-1 [3]; corneal infection, topical treatment",1.0%
same,limiting progression and resolving corneal lesions,HSV-1 [3]; infected rabbits,equally effective
same,Lesion Incidence (%),[4]; 0.8 mg/kg/day oral,88%
same,Lesion Incidence (number/Total),[4]; 0.8 mg/kg/day oral,7/8
same,Lesion Severity (scale 0 to 4),[4]; 0.8 mg/kg/day oral,3.11
same,Lesion Incidence (%),[4]; 3.1 mg/kg/day oral,100%
same,Lesion Incidence (number/Total),[4]; 3.1 mg/kg/day oral,6/6
same,Lesion Severity (scale 0 to 4),[4]; 3.1 mg/kg/day oral,3.25
same,Lesion Incidence (%),[4]; 12.5 mg/kg/day oral,100%
same,Lesion Incidence (number/Total),[4]; 12.5 mg/kg/day oral,6/6
same,Lesion Severity (scale 0 to 4),[4]; 12.5 mg/kg/day oral,2.67
same,Lesion Incidence (%),[4]; 50 mg/kg/day oral,14%
same,Lesion Incidence (number/Total),[4]; 50 mg/kg/day oral,1/7
same,incidence of lesions vs placebo,[4]; only at 50 mg/kg,statistically significant protection
same,extent of lesion development vs placebo,[4]; only at 50 and 12.5 mg/kg,statistically significant protection
same,Lesion Incidence (%),[5]; start 3 hours post infection,100%
same,Lesion Incidence (number/Total),[5]; start 3 hours post infection,10/10
same,Lesion Severity (scale 0 to 4),[5]; start 3 hours post infection,2.80
same,Lesion Incidence (%),[5]; start 8 hours post infection,100%
same,Lesion Incidence (number/Total),[5]; start 8 hours post infection,10/10
same,Lesion Severity (scale 0 to 4),[5]; start 8 hours post infection,2.95
same,Lesion Incidence (%),[5]; start 12 hours post infection,90%
same,Lesion Incidence (number/Total),[5]; start 12 hours post infection,9/10
same,Lesion Severity (scale 0 to 4),[5]; start 12 hours post infection,3.30
same,Lesion Incidence (%),[5]; start 24 hours post infection,90%
same,Lesion Incidence (number/Total),[5]; start 24 hours post infection,9/10
same,Lesion Severity (scale 0 to 4),[5]; start 24 hours post infection,2.85
same,Lesion Incidence (%),[5]; start 48 hours post infection,80%
same,Lesion Incidence (number/Total),[5]; start 48 hours post infection,8/10
same,Lesion Severity (scale 0 to 4),[5]; start 48 hours post infection,2.85
same,Lesion Incidence (%),[5]; start 72 hours post infection,90%
same,Lesion Incidence (number/Total),[5]; start 72 hours post infection,9/10
same,Lesion Severity (scale 0 to 4),[5]; start 72 hours post infection,3.60
same,Lesion Incidence (%),[5]; start 96 hours post infection,100%
same,Lesion Incidence (number/Total),[5]; start 96 hours post infection,7/7
same,Lesion Severity (scale 0 to 4),[5]; start 96 hours post infection,4.00
same,incidence of lesions vs placebo,[5]; all start times,None of the acycloguanosine treated groups had a significantly lower incidence of lesions
same,lesion scores vs placebo,[5]; only start 3 hours after infection,statistically different in lesion score
same,minimal effective concentration,[6],1 to 3 µg/mL
same,minimal effective concentration,[7],1 to 3 µg/mL
